Results on ten molecules are retold here after PubChem BioAssay AID216 (DTP/NCI, 2004).

The assay deals with BDF1 mice, P288 leukemia ip, survival T/C. Description: NCI In Vivo Anticancer Drug Screen. Data for tumor model P288 Lymphocytic Leukemia (intraperitoneal) in B6D2F1 (BDF1) mice. As to conditions: endpoint: survival time, mean or median, higher = longer survival. The procedure: The antitumor activity of compounds was measured in mice bearing transplantable tumors. Survival or tumor size were measured and the results are expressed as the measurement made in the treated group (T) divided by the measurement made in the vehicle treated control group (C). The tumor model used in this assay is P288 Lymphocytic Leukemia (intraperitoneal) in B6D2F1 (BDF1) mice

Setting [1] is: dose: 6.25 mg/kg/injection, schedule: Q01DX Z (ip), vehicle: carboxymethylcellulose (CMC).
[2] abbreviates: dose: 25.0 mg/kg/injection, schedule: Q01DX010 (ip), vehicle: saline.
[3] abbreviates: dose: 50.0 mg/kg/injection, schedule: Q01DX010 (ip), vehicle: saline.
Setting [4] is: dose: 100.0 mg/kg/injection, schedule: Q01DX010 (ip), vehicle: saline.
Where [5] appears, read: dose: 200.0 mg/kg/injection, schedule: Q01DX010 (ip), vehicle: saline.
Setting [6] is: dose: 400.0 mg/kg/injection, schedule: Q01DX010 (ip), vehicle: saline.
Where [7] appears, read: dose: 6.25 mg/kg/injection, schedule: Q01DX010 (ip), vehicle: saline.
[8] abbreviates: dose: 12.5 mg/kg/injection, schedule: Q01DX010 (ip), vehicle: saline.
[9] abbreviates: dose: 20.0 mg/kg/injection, schedule: Q01DX010 (ip), vehicle: saline.
Where [10] appears, read: dose: 40.0 mg/kg/injection, schedule: Q01DX010 (ip), vehicle: saline.

Where “and” joins values, the source holds several entries; their conditions need not be identical. Identical values can stand only once. Inconclusive results and toxic doses are left out.

`CC(=O)O[C@]1(C(C)=O)CC[C@H]2[C@@H]3C[C@H](C)C4=CC(=O)C=C[C@]4(C)[C@@]3(F)[C@@H](O)C[C@@]21C`: the T/C is 95 % of control (dose: 2.5 mg/kg/injection, schedule: Q01DX Z (sc), vehicle: steriod suspending solution); 97 % of control (dose: 5.0 mg/kg/injection, schedule: Q01DX Z (sc), vehicle: steriod suspending solution); 101 % of control (dose: 10.0 mg/kg/injection, schedule: Q01DX Z (sc), vehicle: steriod suspending solution); 100 % of control (dose: 12.5 mg/kg/injection, schedule: Q01DX010 (sc), vehicle: steriod suspending solution); 107 % of control (dose: 20.0 mg/kg/injection, schedule: Q01DX Z (sc), vehicle: steriod suspending solution); 106 % of control (dose: 25.0 mg/kg/injection, schedule: Q01DX010 (sc), vehicle: steriod suspending solution). In addition, the T/C is 118 % of control (dose: 40.0 mg/kg/injection, schedule: Q01DX Z (sc), vehicle: steriod suspending solution); 112 % of control (dose: 50.0 mg/kg/injection, schedule: Q01DX010 (sc), vehicle: steriod suspending solution); 100 % of control (dose: 80.0 mg/kg/injection, schedule: Q01DX Z (sc), vehicle: steriod suspending solution); 93 % of control (dose: 100.0 mg/kg/injection, schedule: Q01DX010 (sc), vehicle: steriod suspending solution); 90 % of control (dose: 160.0 mg/kg/injection, schedule: Q01DX Z (sc), vehicle: steriod suspending solution).

On to `CC(=O)Nc1ccc2nc3ccc(NC(C)=O)cc3[n+](-c3ccccc3)c2c1`, for which the T/C was 115 % of control (dose: 3.1 mg/kg/injection, schedule: Q01DX Z (ip), vehicle: carboxymethylcellulose (CMC)); 113 % of control under setting [1]; 112 % of control under setting [2]; 112 % of control and 95 % of control under setting [3]; 95 % of control under setting [4]; 90 % of control under setting [5]. Also, the T/C under setting [6] was 100 % of control and the T/C (dose: 400.0 mg/kg/injection, schedule: Q01DX Z (ip), vehicle: carboxymethylcellulose (CMC)) was 162 % of control.

For the molecule `C[C@H]1C(=O)O[C@@H]2CCN3CC=C(COC(=O)[C@](C)(O)[C@@]1(C)O)[C@H]23`, the T/C is 97 % of control (dose: 0.99 mg/kg/injection, schedule: Q01DX Z (ip), vehicle: carboxymethylcellulose (CMC)); 94 % of control (dose: 1.88 mg/kg/injection, schedule: Q01DX Z (ip), vehicle: carboxymethylcellulose (CMC)); 100 % of control (dose: 3.13 mg/kg/injection, schedule: Q01DX010 (ip), vehicle: saline); 90 % of control (dose: 3.75 mg/kg/injection, schedule: Q01DX Z (ip), vehicle: carboxymethylcellulose (CMC)); 100 % of control under setting [7]; 121 % of control and 87 % of control under setting [8]. The T/C is, setting by setting: under setting [2], 115 % of control and 100 % of control; under setting [3], 94 % of control.

As for `O=NN(CCCl)C(=O)NCCCl`, the T/C was 121 % of control (dose: 1.0 mg/kg/injection, schedule: Q01DX Z (ip), vehicle: saline); 117 % of control (dose: 2.0 mg/kg/injection, schedule: Q01DX Z (ip), vehicle: saline); 193 % of control and 428 % of control under setting [7]; 150 % of control and 192 % of control under setting [8]; 203 % of control (dose: 16.0 mg/kg/injection, schedule: Q01DX Z (ip), vehicle: saline); 106 % of control and 121 % of control under setting [2]. Besides, the T/C was 263 % of control (dose: 32.0 mg/kg/injection, schedule: Q01DX Z (ip), vehicle: saline); 87 % of control under setting [3]; 101 % of control (dose: 64.0 mg/kg/injection, schedule: Q01DX Z (ip), vehicle: saline).

In the case of `CCOC(=O)c1[nH]c2ccccc2c1CN(CCCl)CCCl`, the T/C by setting is: under setting [9], 95 % of control; under setting [10], 100 % of control.

Regarding `CCN(CC)c1ccc2cc3ccc(=[N+](CC)CC)cc-3oc2c1`, the T/C (dose: 0.08 mg/kg/injection, schedule: Q01DX Z (ip), vehicle: carboxymethylcellulose (CMC)) is 110 % of control; the T/C (dose: 0.16 mg/kg/injection, schedule: Q01DX Z (ip), vehicle: carboxymethylcellulose (CMC)) is 90 % of control; the T/C (dose: 0.31 mg/kg/injection, schedule: Q01DX Z (ip), vehicle: carboxymethylcellulose (CMC)) was 108 % of control; the T/C (dose: 0.32 mg/kg/injection, schedule: Q01DX Z (ip), vehicle: carboxymethylcellulose (CMC)) was 96 % of control; the T/C (dose: 0.63 mg/kg/injection, schedule: Q01DX Z (ip), vehicle: carboxymethylcellulose (CMC)) is 100 % of control; the T/C (dose: 1.25 mg/kg/injection, schedule: Q01DX Z (ip), vehicle: carboxymethylcellulose (CMC)) is 106 % of control. Besides, the T/C was 102 % of control (dose: 2.5 mg/kg/injection, schedule: Q01DX Z (ip), vehicle: carboxymethylcellulose (CMC)); 115 % of control and 117 % of control (dose: 5.0 mg/kg/injection, schedule: Q01DX Z (ip), vehicle: carboxymethylcellulose (CMC)).

Turning to `Nc1c(I)cc(I)cc1C(=O)O`, the T/C is, setting by setting: under setting [2], 100 % of control; under setting [3], 112 % of control and 100 % of control; under setting [4], 112 % of control and 100 % of control; under setting [5], 100 % of control; under setting [6], 106 % of control.

With `COc1cc(-c2ccc(Nc3ccccc3C(=O)O)c(OC)c2)ccc1N`, the T/C by setting is: (dose: 10.0 mg/kg/injection, schedule: Q01DX010 (ip), vehicle: saline) 94 % of control; under setting [9], 114 % of control and 100 % of control; under setting [10], 200 % of control; (dose: 80.0 mg/kg/injection, schedule: Q01DX010 (ip), vehicle: saline) 200 % of control and 228 % of control.

For `C[C@]12CCC(=O)C=C1CC[C@H]1[C@@H]3CC[C@](O)(C(=O)CO)[C@@]3(C)C[C@H](O)[C@@]12F`, the T/C was 97 % of control (dose: 0.45 mg/kg/injection, schedule: Q01DX Z (sc), vehicle: steriod suspending solution); 98 % of control (dose: 0.9 mg/kg/injection, schedule: Q01DX Z (sc), vehicle: steriod suspending solution); 110 % of control and 97 % of control (dose: 1.8 mg/kg/injection, schedule: Q01DX Z (sc), vehicle: steriod suspending solution); 106 % of control (dose: 3.75 mg/kg/injection, schedule: Q01DX Z (sc), vehicle: steriod suspending solution); 108 % of control (dose: 7.5 mg/kg/injection, schedule: Q01DX Z (sc), vehicle: steriod suspending solution); 106 % of control (dose: 15.0 mg/kg/injection, schedule: Q01DX Z (sc), vehicle: steriod suspending solution). Further, the T/C was 108 % of control (dose: 30.0 mg/kg/injection, schedule: Q01DX Z (sc), vehicle: steriod suspending solution); 102 % of control (dose: 60.0 mg/kg/injection, schedule: Q01DX Z (sc), vehicle: steriod suspending solution); 105 % of control (dose: 120.0 mg/kg/injection, schedule: Q01DX Z (sc), vehicle: steriod suspending solution).

`O=C(Nc1ccc(C2=NCCN2)cc1)c1ccc(C(=O)Nc2ccc(C3=NCCN3)cc2)cc1`: the T/C (dose: 3.12 mg/kg/injection, schedule: Q01DX Z (ip), vehicle: carboxymethylcellulose (CMC)) is 107 % of control; the T/C under setting [1] is 94 % of control; the T/C (dose: 8.0 mg/kg/injection, schedule: Q01DX010 (ip), vehicle: other) was 158 % of control and 188 % of control; the T/C (dose: 12.5 mg/kg/injection, schedule: Q01DX Z (ip), vehicle: carboxymethylcellulose (CMC)) is 102 % of control; the T/C (dose: 16.0 mg/kg/injection, schedule: Q01DX010 (ip), vehicle: other) is 195 % of control; the T/C (dose: 25.0 mg/kg/injection, schedule: Q01DX Z (ip), vehicle: carboxymethylcellulose (CMC)) is 102 % of control. Also, the T/C was 154 % of control (dose: 32.0 mg/kg/injection, schedule: Q01DX010 (ip), vehicle: other); 102 % of control (dose: 50.0 mg/kg/injection, schedule: Q01DX Z (ip), vehicle: carboxymethylcellulose (CMC)); 204 % of control (dose: 100.0 mg/kg/injection, schedule: Q01DX Z (ip), vehicle: carboxymethylcellulose (CMC)); 186 % of control (dose: 200.0 mg/kg/injection, schedule: Q01DX Z (ip), vehicle: carboxymethylcellulose (CMC)).
